Measurements: the NIST ThermoML archive (doi:10.1016/j.jct.2011.07.008)
± gives the expanded uncertainty stated by the source.

Experiments:
[1] = mn = molality of the nth substance listed, in mol/kg; settings: 101 kPa, Liquid; for viscosity: Capillary tube (Ostwald / Ubbelohde) method
[2] = 298.15 K; 101.33 kPa; Liquid; Pycnometric method
[3] = refractive index (Na D-line) (dimensionless); settings: 298.15 K; 101.33 kPa; Liquid; Standard Abbe refractometry
[4] = 283.15 K, Buoyancy - hydrostatic balance with magnetic suspension - one sinker, m1 = 0.0599
[5] = 283.15 K, Buoyancy - hydrostatic balance with magnetic suspension - one sinker, m1 = 0.0901
[6] = 275.15 K, Pycnometric method, m2 = 0
[7] = 283.15 K, Buoyancy - hydrostatic balance with magnetic suspension - one sinker, m2 = 0

Question: What does the source list for `COCCO` [2-methoxyethan-1-ol] + O?
Answer: viscosity ([1]; 275.15 K, m1 = 0.0097): 1.006 ± 0.041 mPa·s; viscosity ([1]; 275.15 K, m1 = 0.0205): 1.011 ± 0.041 mPa·s; viscosity ([1]; 275.15 K, m1 = 0.0313): 1.016 ± 0.041 mPa·s; viscosity ([1]; 275.15 K, m1 = 0.0393): 1.02 ± 0.041 mPa·s; viscosity ([1]; 275.15 K, m1 = 0.0487): 1.023 ± 0.041 mPa·s; viscosity ([1]; 275.15 K, m1 = 0.0638): 1.028 ± 0.042 mPa·s; viscosity ([1]; 275.15 K, m1 = 0.0719): 1.03 ± 0.042 mPa·s; viscosity ([1]; 275.15 K, m1 = 0.0813): 1.032 ± 0.042 mPa·s; viscosity ([1]; 275.15 K, m1 = 0.0905): 1.034 ± 0.042 mPa·s; viscosity ([1]; 275.15 K, m1 = 0.102): 1.035 ± 0.042 mPa·s; mass density ([1]; 275.15 K, Pycnometric method, m1 = 0.0097): 999.96 ± 0.33 kg/m3; mass density ([1]; 275.15 K, Pycnometric method, m1 = 0.0205): 999.99 ± 0.33 kg/m3; mass density ([1]; 275.15 K, Pycnometric method, m1 = 0.0313): 999.99 ± 0.33 kg/m3; mass density ([1]; 275.15 K, Pycnometric method, m1 = 0.0393): 1000.02 ± 0.33 kg/m3; mass density ([1]; 275.15 K, Pycnometric method, m1 = 0.0487): 1000.07 ± 0.33 kg/m3; mass density ([1]; 275.15 K, Pycnometric method, m1 = 0.0638): 1000.09 ± 0.33 kg/m3; mass density ([1]; 275.15 K, Pycnometric method, m1 = 0.0719): 1000.1 ± 0.33 kg/m3; mass density ([1]; 275.15 K, Pycnometric method, m1 = 0.0813): 1000.12 ± 0.33 kg/m3; mass density ([1]; 275.15 K, Pycnometric method, m1 = 0.0905): 1000.12 ± 0.33 kg/m3; mass density ([1]; 275.15 K, Pycnometric method, m1 = 0.102): 1000.17 ± 0.33 kg/m3; mass density ([1]; 283.15 K, Buoyancy - hydrostatic balance with magnetic suspension - one sinker, m1 = 0.0104): 999.73 ± 0.23 kg/m3; mass density ([1]; 283.15 K, Buoyancy - hydrostatic balance with magnetic suspension - one sinker, m1 = 0.0193): 999.73 ± 0.23 kg/m3; mass density ([1]; 283.15 K, Buoyancy - hydrostatic balance with magnetic suspension - one sinker, m1 = 0.0326): 999.76 ± 0.23 kg/m3; mass density ([1]; 283.15 K, Buoyancy - hydrostatic balance with magnetic suspension - one sinker, m1 = 0.0417): 999.81 ± 0.23 kg/m3; mass density ([1]; 283.15 K, Buoyancy - hydrostatic balance with magnetic suspension - one sinker, m1 = 0.0492): 999.79 ± 0.23 kg/m3; mass density [1, 4]: 999.88 ± 0.23 kg/m3; mass density ([1]; 283.15 K, Buoyancy - hydrostatic balance with magnetic suspension - one sinker, m1 = 0.0698): 999.93 ± 0.23 kg/m3; mass density ([1]; 283.15 K, Buoyancy - hydrostatic balance with magnetic suspension - one sinker, m1 = 0.0804): 999.91 ± 0.23 kg/m3; mass density ([1]; 283.15 K, Buoyancy - hydrostatic balance with magnetic suspension - one sinker, m1 = 0.0893): 999.94 ± 0.23 kg/m3; mass density [1, 5]: 999.94 ± 0.23 kg/m3; mass density ([1]; 283.15 K, Buoyancy - hydrostatic balance with magnetic suspension - one sinker, m1 = 0.1): 999.95 ± 0.23 kg/m3; mass density ([1]; 283.15 K, Buoyancy - hydrostatic balance with magnetic suspension - one sinker, m1 = 0.1013): 999.97 ± 0.23 kg/m3; viscosity ([1]; 283.15 K, m1 = 0.0104): 1.001 ± 0.041 mPa·s; viscosity ([1]; 283.15 K, m1 = 0.0193): 1.002 ± 0.04 mPa·s; viscosity ([1]; 283.15 K, m1 = 0.0326): 1.005 ± 0.041 mPa·s; viscosity ([1]; 283.15 K, m1 = 0.0417): 1.006 ± 0.041 mPa·s; viscosity ([1]; 283.15 K, m1 = 0.0492): 1.008 ± 0.041 mPa·s; viscosity ([1]; 283.15 K, m1 = 0.0599): 1.011 ± 0.041 mPa·s; viscosity ([1]; 283.15 K, m1 = 0.0698): 1.013 ± 0.041 mPa·s; viscosity ([1]; 283.15 K, m1 = 0.0804): 1.016 ± 0.041 mPa·s; viscosity ([1]; 283.15 K, m1 = 0.0893): 1.019 ± 0.041 mPa·s; viscosity ([1]; 283.15 K, m1 = 0.0901): 1.019 ± 0.041 mPa·s; viscosity ([1]; 283.15 K, m1 = 0.1): 1.023 ± 0.041 mPa·s; viscosity ([1]; 283.15 K, m1 = 0.1013): 1.023 ± 0.041 mPa·s

Question: What does the source list for `COCCO` [2-methoxyethan-1-ol]?
Answer: mass density [2]: 959.03 ± 1.5 kg/m3; refractive index [3]: 1.4003 ± 0.0008

Question: With `COCCOCCO` [2-(2-methoxyethoxy)ethanol] as the compound, how does the mass density [2] read?
Answer: 1014.39 ± 1.6 kg/m3

Question: And the refractive index [3]?
Answer: 1.4245 ± 0.0008

Question: With `COCCOCCO` [2-(2-methoxyethoxy)ethanol] + O as the compound, how does the viscosity ([1]; 275.15 K, m1 = 0.0099) read?
Answer: 1.004 ± 0.041 mPa·s

Question: And the viscosity ([1]; 275.15 K, m1 = 0.0209)?
Answer: 1.009 ± 0.041 mPa·s

Question: What about the viscosity ([1]; 275.15 K, m1 = 0.0309) of the same compound?
Answer: 1.014 ± 0.041 mPa·s

Question: What about the viscosity ([1]; 275.15 K, m1 = 0.0396) of the same compound?
Answer: 1.018 ± 0.041 mPa·s

Question: And the viscosity ([1]; 275.15 K, m1 = 0.052)?
Answer: 1.023 ± 0.041 mPa·s

Question: What about the viscosity ([1]; 275.15 K, m1 = 0.061) of the same compound?
Answer: 1.028 ± 0.042 mPa·s

Question: What about the viscosity ([1]; 275.15 K, m1 = 0.0706) of the same compound?
Answer: 1.032 ± 0.042 mPa·s

Question: And the viscosity ([1]; 275.15 K, m1 = 0.0799)?
Answer: 1.037 ± 0.042 mPa·s

Question: What about the viscosity ([1]; 275.15 K, m1 = 0.093) of the same compound?
Answer: 1.044 ± 0.042 mPa·s

Question: And the viscosity ([1]; 275.15 K, m1 = 0.1057)?
Answer: 1.05 ± 0.042 mPa·s

Question: And the mass density ([1]; 275.15 K, Pycnometric method, m1 = 0.0099)?
Answer: 1000.07 ± 0.33 kg/m3

Question: What about the mass density ([1]; 275.15 K, Pycnometric method, m1 = 0.0209) of the same compound?
Answer: 1000.18 ± 0.33 kg/m3

Question: And the mass density ([1]; 275.15 K, Pycnometric method, m1 = 0.0309)?
Answer: 1000.32 ± 0.33 kg/m3

Question: What about the mass density ([1]; 275.15 K, Pycnometric method, m1 = 0.0396) of the same compound?
Answer: 1000.42 ± 0.33 kg/m3

Question: What about the mass density ([1]; 275.15 K, Pycnometric method, m1 = 0.052) of the same compound?
Answer: 1000.56 ± 0.33 kg/m3

Question: What about the mass density ([1]; 275.15 K, Pycnometric method, m1 = 0.061) of the same compound?
Answer: 1000.66 ± 0.33 kg/m3

Question: What about the mass density ([1]; 275.15 K, Pycnometric method, m1 = 0.0706) of the same compound?
Answer: 1000.76 ± 0.33 kg/m3

Question: And the mass density ([1]; 275.15 K, Pycnometric method, m1 = 0.0799)?
Answer: 1000.86 ± 0.33 kg/m3

Question: And the mass density ([1]; 275.15 K, Pycnometric method, m1 = 0.093)?
Answer: 1000.98 ± 0.33 kg/m3

Question: And the mass density ([1]; 275.15 K, Pycnometric method, m1 = 0.1057)?
Answer: 1001.12 ± 0.33 kg/m3

Question: And the mass density ([1]; 283.15 K, Buoyancy - hydrostatic balance with magnetic suspension - one sinker, m1 = 0.0109)?
Answer: 999.8 ± 0.23 kg/m3

Question: And the mass density ([1]; 283.15 K, Buoyancy - hydrostatic balance with magnetic suspension - one sinker, m1 = 0.0191)?
Answer: 999.93 ± 0.23 kg/m3

Question: And the mass density ([1]; 283.15 K, Buoyancy - hydrostatic balance with magnetic suspension - one sinker, m1 = 0.0303)?
Answer: 1000.04 ± 0.23 kg/m3

Question: What about the mass density ([1]; 283.15 K, Buoyancy - hydrostatic balance with magnetic suspension - one sinker, m1 = 0.0406) of the same compound?
Answer: 1000.11 ± 0.23 kg/m3

Question: What about the mass density ([1]; 283.15 K, Buoyancy - hydrostatic balance with magnetic suspension - one sinker, m1 = 0.0487) of the same compound?
Answer: 1000.17 ± 0.23 kg/m3

Question: What about the mass density [1, 4] of the same compound?
Answer: 1000.27 ± 0.23 kg/m3

Question: And the mass density ([1]; 283.15 K, Buoyancy - hydrostatic balance with magnetic suspension - one sinker, m1 = 0.0709)?
Answer: 1000.38 ± 0.23 kg/m3

Question: And the mass density ([1]; 283.15 K, Buoyancy - hydrostatic balance with magnetic suspension - one sinker, m1 = 0.0806)?
Answer: 1000.47 ± 0.23 kg/m3

Question: What about the mass density ([1]; 283.15 K, Buoyancy - hydrostatic balance with magnetic suspension - one sinker, m1 = 0.09) of the same compound?
Answer: 1000.56 ± 0.23 kg/m3

Question: What about the mass density [1, 5] of the same compound?
Answer: 1000.59 ± 0.23 kg/m3

Question: And the mass density ([1]; 283.15 K, Buoyancy - hydrostatic balance with magnetic suspension - one sinker, m1 = 0.1009)?
Answer: 1000.68 ± 0.23 kg/m3

Question: And the viscosity ([1]; 283.15 K, m1 = 0.0109)?
Answer: 1.004 ± 0.041 mPa·s

Question: And the viscosity ([1]; 283.15 K, m1 = 0.0191)?
Answer: 1.008 ± 0.041 mPa·s

Question: What about the viscosity ([1]; 283.15 K, m1 = 0.0303) of the same compound?
Answer: 1.012 ± 0.041 mPa·s

Question: What about the viscosity ([1]; 283.15 K, m1 = 0.0406) of the same compound?
Answer: 1.016 ± 0.041 mPa·s

Question: And the viscosity ([1]; 283.15 K, m1 = 0.0487)?
Answer: 1.02 ± 0.041 mPa·s

Question: What about the viscosity ([1]; 283.15 K, m1 = 0.0599) of the same compound?
Answer: 1.024 ± 0.041 mPa·s

Question: What about the viscosity ([1]; 283.15 K, m1 = 0.0709) of the same compound?
Answer: 1.029 ± 0.042 mPa·s

Question: What about the viscosity ([1]; 283.15 K, m1 = 0.0806) of the same compound?
Answer: 1.033 ± 0.042 mPa·s

Question: And the viscosity ([1]; 283.15 K, m1 = 0.09)?
Answer: 1.037 ± 0.042 mPa·s

Question: And the viscosity ([1]; 283.15 K, m1 = 0.0901)?
Answer: 1.037 ± 0.042 mPa·s

Question: And the viscosity ([1]; 283.15 K, m1 = 0.1009)?
Answer: 1.041 ± 0.042 mPa·s

Question: Which mass density [2] does the source give for `CCOCCOCCO` [3,6-dioxa-1-octanol] here?
Answer: 984.045 ± 1.6 kg/m3

Question: And the refractive index [3]?
Answer: 1.4253 ± 0.0008

Question: For `O` [water] + COCCO, which viscosity ([1]; 275.15 K, m2 = 0) is on record?
Answer: 1.674 ± 0.069 mPa·s

Question: And the mass density [1, 6]?
Answer: 999.94 ± 0.33 kg/m3

Question: And the mass density [1, 7]?
Answer: 999.7 ± 0.23 kg/m3

Question: What about the viscosity ([1]; 283.15 K, m2 = 0) of the same compound?
Answer: 1.31 ± 0.053 mPa·s

Question: Which viscosity ([1]; 275.15 K, m2 = 0) does the source give for `O` [water] + COCCOCCO here?
Answer: 1.674 ± 0.069 mPa·s

Question: What about the mass density [1, 6] of the same compound?
Answer: 999.94 ± 0.33 kg/m3

Question: And the mass density [1, 7]?
Answer: 999.7 ± 0.23 kg/m3

Question: What about the viscosity ([1]; 283.15 K, m2 = 0) of the same compound?
Answer: 1.31 ± 0.053 mPa·s

Question: What does the source list for `O` [water] + CCOCCOCCO?
Answer: viscosity ([1]; 275.15 K, m2 = 0): 1.674 ± 0.069 mPa·s; mass density [1, 6]: 999.94 ± 0.33 kg/m3; mass density [1, 7]: 999.7 ± 0.23 kg/m3; viscosity ([1]; 283.15 K, m2 = 0): 1.31 ± 0.053 mPa·s
